Assay results as given in US11464784B2, “Inhibition of aminocylase 3 (AA3) in the treatment of cancer” (THE REGENTS OF THE UNIVERSITY OF CALIFORNIA, priority 2017, dated 2022).

B1: mAA3 (Mus musculus) (protein)
chain: MSSLPGSREPLLRVAVTGGTHGNEMCGVYLARYWLQNPGELQRPSFSAMPVLANPAATAACCRYLDRDLNRSCTLTFLGSTATPDDPYEVKRARELNQLLGPKGTGQAFDFTLDLHNTTANTGVCLISESNISFNLHLCHYLQRQNPGMPCRLFLYEPAGTETFSVESISKNGICLEMGPQPQGVLRADLFSRMRALVASILDFIELFNQGMDLPAFEMDIYRNLGSVDFPRTADGDLAGTVHPQLQDHDFEPLRPGEPIFKLFSGEDVLYEGDSIVYPVFINEAAYYEKHVAFLKSEKIRVTVPALLRLTPRSTQTP

Columns and labels:
[1] = system: pancreatic cancer cell lines PANC-1, MIA PaCa-2, BxPC-3; assay: MTT cell viability, pancreatic cancer cell lines; format: cell-based, human
From the text: (§1) Human colon cancer cell lines COLO 205, HCT 116, LS 513 (all ATCC), primary colon epithelial cells (Cell Biologics), pancreatic cancer cell lines PANC-1, MIA PaCa-2, BxPC-3, and normal pancreatic duct epithelial cells (UCLA collection) were used in experiments. COLO 205, LS 513, BxPC-3 cells were cultivated in RPMI 1640 medium with 10% FBS, HCT 116 cells were cultivated in McCoy's 5A medium with 10% FBS, PANC-1 and MIA PaCa-2 cell lines were cultivated in DMEM medium with 10% FBS, and normal colon and pancreatic cells were maintained in Human Epithelial Cell Medium (Cell Biologics).
(§2) HCC cell lines HepG2, HuH7, primary hepatocytes, colon cell lines COLO 205, HCT 116, LS 513, primary colon epithelial cells, pancreatic cancer cell lines PANC-1, MIA PaCa-2, BxPC-3, and normal pancreatic duct epithelial cells were seeded in 96-well plates at a density 10,000 cells per well in complete medium. Next day medium was changed to medium containing 1% FBS and an AA3 inhibitor (3-100 μM). 24 h later cell viability was determined using the MTT (3-(4,5-dimethylthiazol-2-yl)-2,5-diphenyltetrazolium bromide) cell viability assay. Cells were incubated during 4 h at 37° C. with 150 μl fresh media containing 0.5 mg/ml MTT. Then 50 μl of 20% SDS in 25 mM HCl was added to each well, incubated for 4 h and the optical density at 570 nm was measured on a VMax Kinetic Microplate Reader (Molecular Devices, Sunnyvale, Calif.).

[2] = system: colon cancer cell lines COLO 205, HCT 116, LS 513; assay: MTT cell viability, colon cancer cell lines; format: cell-based, human
From the text: as §1, §2

HuH7 cells [3] = assay: MTT cell viability, HuH7; format: cell-based, human; details: HuH7, within the micromolar range, 24 h
Description: as §2
(§3) To study the effect of AA3 silencing, HepG2 and HUH7 cells seeded in 96-well plates were transfected with 2 pmol AA3 siRNA using the Lipofectamine RNAiMAX reagent as per the manufacturer protocol. Cell viability was measured in the MTT assay 48 h later as described.

HuH7 cells [4] = assay: Levels of FC and NAFC in HuH7 cells (LC/MS); format: cell-based, human; details: for FC level decreased by / level of NAFC: HuH7, 10-20 μM inhibitor, 24 h, vs untreated; for [FC]/[NAFC] ratio: HuH7 treated cells (untreated ~2.8)
Description: (§4) HUH7 and HepG2 cells were seeded in 6-well plates at a density 250,000 cells per well in complete medium. Next day the medium was changed to 2 ml DMEM with 1% FBS containing a 10-20 μM AA3 inhibitor. After 24 h incubation, the medium was collected, concentrated 10 times on a vacuum concentrator; 10 μl aliquots were used for quantitation by LC/MS and LC/MS/MS-MRM. The cells were trypsinized, washed in PBS and centrifuged at 2,000 g for 10 min. Then cell pellet was lysed on ice in 50 μl of 20 mM Tris-HCl, pH 7.5, containing 1% dodecyl maltoside (DDM) and 1× protease inhibitor cocktail (Sigma/Aldrich). After centrifugation (14,000 g, 10 min) the supernatants were diluted 4 times with methanol and centrifuged (14,000 g, 10 min), then the supernatants were diluted 10 times with water, and 10 μl aliquots were used for quantitation by LC/MS and LC/MS/MS-MRM as described above expect electrospray ionization was used with an Agilent 6460 triple quadrupole mass spectrometer.

HepG2 cells [5] = assay: Levels of FC and NAFC in HepG2 cells (LC/MS); format: cell-based, human; details: for FC level / level of NAFC: HepG2, 10-20 μM inhibitor, 24 h, vs untreated; for [FC]/[NAFC] ratio: HepG2 treated cells (untreated ~8.4)
Description: as §4

[6] = system: normal pancreatic duct epithelial cells; assay: MTT cell viability, normal pancreatic cells; format: cell-based, human
From the text: as §1, §2

[7] = system: normal primary hepatocytes; assay: MTT cell viability, normal primary hepatocytes; format: cell-based; details: inhibitor 10: 0-50 μM range; inhibitor 11: in comparison with HCC cell lines
Description: as §2, §3

HepG2 cells [8] = assay: MTT cell viability, HepG2; format: cell-based, human; details: HepG2, within the micromolar range, 24 h
Description: as §2, §3

[9] = system: membrane associated Ras in HepG2 cells; assay: Membrane associated Ras in HepG2 cells (immunoblot); format: cell-based, human; details: HepG2, 24 h
Description: Cultured HCC cells and primary hepatocytes were washed with PBS buffer, treated with 0.25% Trypsin-EDTA solution (Corning) and precipitated at 1,000 rpm for 5 min. For protein extraction, HCC cells were lysed on ice by vortexing every 5 min for 30 min in RIPA buffer containing 20 mM Tris-HCl (pH 7.5), 150 mM NaCl, 5 mM EDTA, 1% Triton X-100, 0.5% sodium deoxycholate, 0.1% SDS, and 1× Halt protease inhibitor cocktail (Thermo Scientific, Waltham, Mass.). Prenylated Ras other membrane associated proteins were extracted from HCC cells using a Mem-PER Plus Kit (Thermo Scientific) according to the manufacturer's protocol. […]
HepG2 cells were seeded in 6-well plates at a density 250,000 cells per well. […] 24 h later cells were collected, washed with PBS and the membrane associated Ras proteins were extracted as described above, resolved on SDS-PAGE, and detected with the anti-Ras antibody (EMD Millipore).
To study the effect of AA3 suppression on Ras membrane association, HepG2 and HuH7 cells seeded onto 6-well plates at the same density, were transfected with 50 pmol ACY3 (AA3) Silencer Select Pre-designed siRNA (Invitrogen, Grand Island, N.Y.) using the Lipofectamine RNAiMAX reagent (Invitrogen) following the manufacturer protocol. […] After 48 h incubation, membrane associated proteins were extracted and membrane associated Ras was determined by immunoblotting as described above.

[10] = system: primary colon epithelial cells; assay: MTT cell viability, normal colon cells; format: cell-based, human; details: colon (FIG. 24)
From the text: as §1
as §2, with “Cells were incubated during 4 h at 37° C. with 150 μl fresh media containing 0.5 mg/ml MTT.” left out

[11] = substrate: CC(=O)C/C(C)=C/CC/C(C)=C/CC/C(C)=C/CC/C(C)=C/CN[C@@H](CS)C(=O)O; assay: Substrate kinetics of mouse AA3 (mAA3); format: biochemical; details: other: substrate of mAA3

Row | Molecule | toxicity for pancreatic cancer cells [1] | efficiency for pancreatic cell lines ([1]; lines expressing either wild type (wt) or mutant (mut) KRas) | growth of colon cancer cell lines ([2]; lines expressing wild type (wt) or mutant (mut) KRas) | toxicity (cell viability) (HuH7 cells [3]) | FC level decreased by (HuH7 cells [4]) | level of NAFC (HuH7 cells [4]) | [FC]/[NAFC] ratio (HuH7 cells [4]) | FC level (HepG2 cells [5]) | level of NAFC (HepG2 cells [5]) | [FC]/[NAFC] ratio (HepG2 cells [5]) | toxicity for pancreatic normal cells [6] | toxicity for normal vs cancer cell lines ([6]; pancreatic (FIG. 25)) | toxicity to normal primary hepatocytes [7] | toxicity (cell viability) (HepG2 cells [8]) | level of the membrane associated Ras decreased by, % of control [9] | toxicity for normal vs cancer cell lines [10] | growth of colon cancer cell lines ([2]; lines expressing mutant (mut) KRas) | Km [11]
1 | O=c1nc(-c2ccccc2)sc2ccccc12 [Inhibitor 10, 2-Phenyl-4H-1,3-benzothiazin-4-one] | toxic | efficient | suppress growth | toxic | approximately 50% | significantly increased | ~0.85 | not significantly changed | significantly increased | ~1.6 | toxic | significantly less toxic | not toxic | toxic | ~50% | significantly less toxic |  | 
2 | COc1ccc(CSc2nc3cc(S(N)(=O)=O)ccc3n2C)cc1F [Inhibitor 11, 2-[(3-Fluoro-4-methoxybenzyl)sulfanyl]-1-methyl-1H-benzimidazole-5-sulfonamide] | toxic |  |  | toxic | approximately 50% | significantly increased | ~0.9 | not significantly changed | significantly increased | ~2.8 | toxic |  | significantly less toxic | toxic | ~50% |  | suppress growth | 
3 | B1 |  |  |  |  |  |  |  |  |  |  |  |  |  |  |  |  |  | 25 µM
